Assay results taken from patent US20230270764A1, “COMPOSITION COMPRISING CANNABINOIDS, TERPENES, AND FLAVONOIDS FOR TREATING DEPRESSION” (priority 2020, published 2023).

System: LPS-injected mice
Experiment: Sucrose preference test in the LPS-induced model of depression
Type: in vivo
Details: Example 9; male C57BL/6, i.p. 1 h before LPS 330 µg/kg; mg/kg: CBD 30; CBDA 1 or 5; BCP 50; kaempferol 30; CBD 30 plus THC 10; CBD 30 plus kaempferol 30
Text: In a preliminary screening experiment, subjects were 4-6 months-old male C57BL/6 (Jackson Laboratories, USA). Animals were housed 2-3/cage, kept in an air-conditioned room (23+°C) and given ad libitum access to food and water. The mice were kept in a reversed light/dark cycle, with lights off from 7 a.m. to 7 p.m. All experiments were approved by the Hebrew University of Jerusalem Ethics Committee on Animal Care and Use. In preparation for the Sucrose Preference Test, mice were habituated 2-3 times to sucrose drinking, by exposing them overnight to two graduated tubes, one containing water and the other containing sucrose solution (1%, w/v). Water and sucrose consumption were measured, and sucrose preference was computed by dividing the amount of sucrose consumed by drinking (ml sucrose) by the total drinking volume (ml of sucrose + water). One day later, the weight of the mice and the food in their cages was weighed for later analysis of food consumption and body weight changes. Groups of mice were injected intraperitoneally (i.p.) with either vehicle (cremophor, ethanol and PBS, 1:1:18 (v/v/v)) or a cannabinoid-based formulation (by itself or with another cannabinoid, or a terpene or a flavonoid). One hour later, each of these groups was injected with LPS (330 µg/kg). All injections were administered at a dose of 10 ml/kg. Four hours following the LPS injection, mice were tested in the Open-Field Test. In this test, the measured locomotor activity reflects not only motor capacity, but particularly the innate motivation for spatial exploration (which increases the distance travelled) and the anxiety level (which reduces the distance travelled, in general, and particularly the distance and time spent in the center of the open field). Each subject was placed near one of the walls of a white 50 X 50 cm^2 arena with 40 cm high walls. The distance travelled (cm), the velocity of the movement (cm/second), the time spent (seconds), distance travelled (cm) in the center area of the arena, as well as the number of entries from the perimeter area into the center of the arena were automatically measured over a 4-minute period, using EthoVision XT video tracking system and software (Noldus, The Netherlands). Twenty-four hours after the LPS injection, mice were tested in the Social Exploration Test. […] Social exploration, defined as the time of near contact between the nose of the subject and the juvenile in the small cage was recorded for 4 min, using computerized in-house software. Sucrose preference was assessed, as described above, between 8 to 27 hr post LPS injection. Body weight and weight of the food were measured two hours before the LPS injection, and again after 24 hours, and the change in body weight and food consumption were calculated. […]

`C=C1CC/C=C(\C)CC[C@@H]2[C@@H]1CC2(C)C` [β-caryophyllene] was tested, and the “sucrose preference compared with vehicle-treated groups” value was “significantly increased sucrose preference”.
